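1) Cells in 96-well plates. 2) Compound, 48 h, 5 concentrations. 3) Linear interpolation between surrounding doses. 4) Unreached endpoint = highest concentration. GI50: concentration for 50% inhibition of growth.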 Calls of active or inactive are those of the source. No stated cut-off is given here; in the data, active = GI50 up to about 1.1 µM and inactive = higher.
Columns and labels:
Assay in all cases: NCI-60 cell line screen, 48 h
[1] = test system: CAKI-1
[2] = test system: CCRF-CEM
[3] = test system: HT-29
[4] = test system: MDA-MB-231
[5] = test system: MDA-N
[6] = test system: MOLT-4
[7] = test system: OVCAR-5
[8] = test system: OVCAR-8
[9] = test system: PC-3
[10] = test system: SF-295
[11] = test system: SK-MEL-28
[12] = test system: SK-MEL-2
[13] = test system: SK-OV-3
[14] = test system: SW-620
[15] = test system: T47D
[16] = test system: U-251
[17] = test system: UACC-257
[18] = test system: A498
[19] = test system: HL-60
[20] = test system: SNB-75

| Compound | GI50 [1] | GI50 [2] | GI50 [3] | GI50 [4] | GI50 [5] | GI50 [6] | GI50 [7] | GI50 [8] | GI50 [9] | GI50 [10] | GI50 [11] | GI50 [12] | GI50 [13] | GI50 [14] | GI50 [15] | GI50 [16] | GI50 [17] | GI50 [18] | GI50 [19] | GI50 [20] |
| --- | --- | --- | --- | --- | --- | --- | --- | --- | --- | --- | --- | --- | --- | --- | --- | --- | --- | --- | --- | --- |
| CCN(C(=S)N[C@H](C(=O)N[C@@H](C)C(=O)OC)C(C)C)c1ccccc1 | > 100 µM (inactive) | 27.8 µM (inactive) | 31.5 µM (inactive) | > 100 µM (inactive) | 91.2 µM (inactive) | 25.4 µM (inactive) | > 100 µM (inactive) | 21.8 µM (inactive) | 64.9 µM (inactive) | > 100 µM (inactive) | > 100 µM (inactive) | > 100 µM (inactive) | > 100 µM (inactive) | 59.7 µM (inactive) | > 100 µM (inactive) | > 100 µM (inactive) | 44.7 µM (inactive) | – | – | – |
| COc1ccccc1C(=O)c1c(N2CCCCC2)c(=O)c1=O | > 100 µM (inactive) | > 100 µM (inactive) | > 100 µM (inactive) | > 100 µM (inactive) | > 100 µM (inactive) | > 100 µM (inactive) | > 100 µM (inactive) | > 100 µM (inactive) | > 100 µM (inactive) | > 100 µM (inactive) | > 100 µM (inactive) | > 100 µM (inactive) | > 100 µM (inactive) | > 100 µM (inactive) | – | > 100 µM (inactive) | > 100 µM (inactive) | > 100 µM (inactive) | > 100 µM (inactive) | > 100 µM (inactive) |
| CCOP(=O)(OCC)/C(C#N)=C/c1[nH]cnc1C | > 100 µM (inactive) | > 100 µM (inactive) | > 100 µM (inactive) | > 100 µM (inactive) | > 100 µM (inactive) | > 100 µM (inactive) | > 100 µM (inactive) | > 100 µM (inactive) | > 100 µM (inactive) | > 100 µM (inactive) | > 100 µM (inactive) | > 100 µM (inactive) | > 100 µM (inactive) | > 100 µM (inactive) | – | > 100 µM (inactive) | > 100 µM (inactive) | > 100 µM (inactive) | > 100 µM (inactive) | > 100 µM (inactive) |
| CC1=NN(c2nc(N)nc(CO)n2)C(C)(C)C1 | > 100 µM (inactive) | > 100 µM (inactive) | > 100 µM (inactive) | > 100 µM (inactive) | – | > 100 µM (inactive) | > 100 µM (inactive) | > 100 µM (inactive) | > 100 µM (inactive) | > 100 µM (inactive) | > 100 µM (inactive) | > 100 µM (inactive) | > 100 µM (inactive) | > 100 µM (inactive) | > 100 µM (inactive) | > 100 µM (inactive) | > 100 µM (inactive) | > 100 µM (inactive) | > 100 µM (inactive) | > 100 µM (inactive) |
| CSC(C1c2ccccc2N(c2ccc(C)cc2)C2=NC(=O)N(C)C(=O)C21Cl)S(=O)(=O)c1ccc(C)cc1 (stereo not drawn) | 19.8 µM (inactive) | 10.8 µM (inactive) | 26.2 µM (inactive) | – | – | 6.08 µM (inactive) | 35.3 µM (inactive) | 27.8 µM (inactive) | – | 24.2 µM (inactive) | 21 µM (inactive) | 18.8 µM (inactive) | 42.1 µM (inactive) | 30.6 µM (inactive) | – | 19.3 µM (inactive) | 23.7 µM (inactive) | 33 µM (inactive) | 3.31 µM (inactive) | 23 µM (inactive) |
| COC1=CCC2=C(CCN(C(=O)C3CC3)C2Cc2ccc(OC)c(O)c2)C1 (stereo not drawn) | 83.4 µM (inactive) | 34 µM (inactive) | 45.9 µM (inactive) | 63.2 µM (inactive) | – | 8.67 µM (inactive) | > 100 µM (inactive) | 34 µM (inactive) | 35.6 µM (inactive) | 57.8 µM (inactive) | 31.8 µM (inactive) | 38.3 µM (inactive) | > 100 µM (inactive) | 29 µM (inactive) | 21 µM (inactive) | 86.7 µM (inactive) | 47.9 µM (inactive) | 68.5 µM (inactive) | 26.7 µM (inactive) | 14.9 µM (inactive) |
| O=C1C(Cl)=C(NCCN2CCOCC2)C(=O)c2ncccc21 | – | 0.394 µM (active) | 2.96 µM (inactive) | 2.08 µM (inactive) | 0.2 µM (active) | 1.51 µM (inactive) | 2.15 µM (inactive) | 1.53 µM (inactive) | 2.59 µM (inactive) | 1.82 µM (inactive) | 1.84 µM (inactive) | – | 1.95 µM (inactive) | 1.85 µM (inactive) | 2.45 µM (inactive) | 1.66 µM (inactive) | 1.71 µM (inactive) | 2.97 µM (inactive) | – | 1.35 µM (inactive) |
| N=C(N)SCCSC(=N)N | > 100 µM (inactive) | – | > 100 µM (inactive) | > 100 µM (inactive) | > 100 µM (inactive) | > 100 µM (inactive) | > 100 µM (inactive) | > 100 µM (inactive) | > 100 µM (inactive) | > 100 µM (inactive) | > 100 µM (inactive) | – | > 100 µM (inactive) | > 100 µM (inactive) | > 100 µM (inactive) | > 100 µM (inactive) | > 100 µM (inactive) | > 100 µM (inactive) | – | > 100 µM (inactive) |
